Laboratory results: patent US10076503B2 (priority 2014, dated 2018)

How the values were obtained:
clinical = conditions: human, in vivo
Procedure: Upon oral administration, methylphenidate is rapidly and completely absorbed from the gastrointestinal tract. Peak concentrations occur 1 to 2 hours after dose administration. […] When methylphenidate and cocaine are administered intravenously, their pharmacokinetics are quite similar—the percentage of each drug taken up by the brain and their rates of uptake are parallel, although the clearance from the brain of cocaine is faster than that of methylphenidate. The receptor-binding affinities for cocaine and methylphenidate are similar at the dopamine transporter in the basal ganglia and the striatum. […] Thus it appears that abuse may be related to a rapid surge in dopamine levels in the striatum. […] The consequence of the slow increase in dopamine is the absence of a “high”, and the consequence of the long T1/2 is that serum concentration gradually increases to a steady state.

adults with ADHD = format: in vivo, human
Procedure: The study consisted of three periods including Screening, Treatment, and Washout/Follow-up, as described below. Efficacy was evaluated using the ADHD Rating Scale Version IV (ADHD RS-IV) with adult prompts. Effects on cognition were evaluated using the clinical data repository system. Safety and tolerability were monitored throughout the study by collection of physical examinations, 12-lead electrocardiograms (ECG), vital signs, adverse events (AEs), hematology, blood chemistry, urinalysis, Insomnia Severity Index (ISI), and Columbia—Suicide Severity Rating Scale (C-SSRS).
Subjects self-administered the study drug at home on Days 1 through 28, at approximately the same time each night. After Day 1 subjects returned to the clinic on Days 8, 15, 22, and 29. Beginning at Day 1 and at every visit during the treatment period, the ADHD RS-IV, Wender-Reimherr Adult Attention Deficit Disorder Scale (WRAADDS), and clinical global impression—severity (CGI-S) were completed. The clinical data repository system was administered at Baseline, and Days 15 and 29.
At Days 36 and 43, subjects returned to the clinic and the ADHD RS-IV, WRAADDS, and CGI-S were completed. The clinical data repository system was completed on Day 43.

DAT sites = target: T1, DAT sites (Homo sapiens, UniProt Q01959); assay: DAT site occupancy versus serum concentration (other studies, not shown); conditions: in vivo
T1 construct: from tissue; host or cells: brain in vivo (my inference)
T1 sequence (Q01959 whole entry): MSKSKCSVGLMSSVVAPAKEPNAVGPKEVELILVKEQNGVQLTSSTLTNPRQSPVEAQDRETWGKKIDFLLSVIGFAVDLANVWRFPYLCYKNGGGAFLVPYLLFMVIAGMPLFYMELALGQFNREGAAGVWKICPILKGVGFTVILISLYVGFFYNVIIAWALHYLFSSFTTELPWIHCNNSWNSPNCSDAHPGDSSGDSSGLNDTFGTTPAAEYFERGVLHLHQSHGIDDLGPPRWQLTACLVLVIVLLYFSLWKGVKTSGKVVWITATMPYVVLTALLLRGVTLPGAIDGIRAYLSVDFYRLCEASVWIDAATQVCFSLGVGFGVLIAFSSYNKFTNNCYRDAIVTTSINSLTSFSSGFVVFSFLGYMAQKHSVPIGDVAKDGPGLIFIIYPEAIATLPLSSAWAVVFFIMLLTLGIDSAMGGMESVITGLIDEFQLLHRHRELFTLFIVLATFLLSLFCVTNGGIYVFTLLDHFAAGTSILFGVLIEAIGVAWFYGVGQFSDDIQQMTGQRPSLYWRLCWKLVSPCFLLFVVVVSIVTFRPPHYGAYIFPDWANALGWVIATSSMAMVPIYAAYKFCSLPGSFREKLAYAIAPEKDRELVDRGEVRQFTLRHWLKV

[1] = test system: healthy recreational stimulant users; assay: single-dose crossover abuse potential study, placebo- and methylphenidate-controlled; format: in vivo, human
Excerpt: A single-dose, randomized, double-blind, double-dummy, placebo- and active-controlled crossover study with 6 Treatment Visits per subject was undertaken. […] Subjects participated in a medical screening visit (Visit 1), one 4-day inpatient qualification phase (Visit 2), a treatment phase (Visits 3 to 8) consisting of six 5-day inpatient treatment visits, and a safety follow-up visit (Visit 9). Within 21 days of the screening visit, subjects were enrolled and attended a qualification phase in which they received either 60 mg methylphenidate or matching placebo in a randomized double-blind crossover manner. Dosing times were separated by approximately 24 hours to ensure that subjects could discriminate and show positive effects of the positive control.
Healthy female and male subjects aged 18 to 55 years (inclusive), who were recreational central nervous system (CNS) stimulant users with cocaine experience and who had passed the methylphenidate qualification phase, were randomized into the treatment.
Drug administration occurred on Day 1 of each treatment visit followed by pharmacodynamic (PD), pharmacokinetic (PK), and safety assessments conducted for up to 72 hours post-dose. […] Subjects were randomized to one of 6 treatment sequences according to a 6×6 William square design. The capsules received at each treatment visit (Visits 3 to 8) were identical. Serial pharmacodynamic and pharmacokinetic evaluations were taken at each treatment visit. Pharmacokinetic analysis was performed for dasotraline. Safety monitoring included regular assessments of vital signs, clinical laboratory tests, and adverse events (AEs), as well as continuous telemetry monitoring for at least 12 hours post-dose. Treatment visits were separated by a washout interval of at least 21 days (from the day of dosing). Subjects returned for the safety follow-up visit within approximately 14 days following the end of the last treatment visit.

[2] = cited from earlier work
[3] = methylphenidate 40 mg and 80 mg, single dose

**Q.** Which results are given for `N[C@@H]1CC[C@@H](c2ccc(Cl)c(Cl)c2)c2ccccc21` [dasotraline, (1R,4S)-4-(3,4-Dichlorophenyl)-1,2,3,4-tetrahydronaphthalen-1-amine]?
**A.** Cmax (clinical; 4 mg): ~1.5 ng/mL; Tmax (clinical; 4 mg): > 6 h; Tmax (clinical; po): 10 to 12 h; half-life (clinical; po): 47 to 77 h; anxiety leading to discontinuation (adults with ADHD; 4 mg once daily): 2.6%; computerized cognitive assessment battery: attention, working memory, episodic memory (adults with ADHD; 4 mg once daily): no significant main effects; insomnia leading to discontinuation (adults with ADHD; 4 mg once daily): 2.6%; Wender-Reimherr ADD total score (adults with ADHD; 4 mg once daily versus placebo): did not improve enough to achieve statistical significance; treatment-emergent adverse events (TEAEs), percentage (adults with ADHD; 4 mg once daily versus placebo): higher than the percentage of TEAEs in the placebo group; Wender-Reimherr subscore for the attention difficulties component (adults with ADHD; 4 mg once daily versus placebo, week 4): statistically significant improvement; serum concentration as a function of time (adults with ADHD; 4 mg once daily, 4 weeks): began to plateau by week four; ADHD RS-IV total score, LS mean change from baseline versus placebo (adults with ADHD; 4 mg once daily, to week four, p<0.05, FIG. 1): statistically different at weeks three and four; CGI-S score, LS mean change from baseline versus placebo (adults with ADHD; 4 mg once daily, to week four, p<0.05, FIG. 2): statistically different at weeks three and four; incidence of adverse events rated as severe (adults with ADHD; 4 mg once daily, placebo group 2.7%): 6%; mean concentrations at steady state (adults with ADHD; 4 mg/d): 6 ng/mL; circulating DHPG levels (adults with ADHD; 4 mg/d, indicative of central inhibition of norepinephrine transporters): decreased circulating DHPG levels; time of administration to statistically significant improvement in ADHD (adults with ADHD; oral dosage form containing 4 mg): about two to three; serum concentration at which 50% DAT site occupancy was achieved (DAT sites): 5 to 6 ng/mL; differences from placebo on pharmacodynamic endpoints ([1]; 16 mg single dose): very few statistically significant differences from placebo; effects on most pharmacodynamic endpoints versus placebo ([1]; dasotraline 8, 16 and 36 mg, single dose): not significantly different from those of placebo

**Q.** Which “Drug Similarity Visual Analog Scale” value [1, 3] does the source give for `COC(=O)C(c1ccccc1)C1CCCCN1` (stereo not shown) [methylphenidate] here?
**A.** strongly identified as a stimulant

**Q.** What about the “majority of pharmacodynamic endpoints incl. Drug Liking Visual Analog Scale, versus placebo” value [1, 3] of the same compound?
**A.** significant differences compared to placebo

**Q.** What about the secondary stimulant measures [1, 3] of the same compound?
**A.** strong stimulant effects

**Q.** And the pharmacokinetic half-life ([2]; in vivo)?
**A.** approximately 2 hours

**Q.** What about the “time of peak concentrations after dose administration” value ([2]; oral administration) of the same compound?
**A.** 1 to 2 h
